Data on nine compounds can be found in paper PMC9214071 (Acta Pharmaceutica Sinica. B, 2022).

“And” between values parts separate entries of the source, which are not always exact repeats. Identical values can stand only once. Like-named read-outs stand apart in the source and are kept apart here. Marks after values point to notes of the source that are not given here.

Usually Ki stands for a dissociation constant, usually derived from enzyme kinetics or from competition with a known ligand. As a reminder, the IC50 is the point on the concentration scale where inhibition reaches its midpoint. Read a low IC50 as greater potency in that assay. What is called half-life is how long it takes for the measured level to halve.

The target in one data set is PAK1 (Homo sapiens, UniProt Q13153). In words: PAK1 FRET-based Z'-Lyte assay. It is filed as biochemical.
Chain of PAK1 (Q13153 whole entry): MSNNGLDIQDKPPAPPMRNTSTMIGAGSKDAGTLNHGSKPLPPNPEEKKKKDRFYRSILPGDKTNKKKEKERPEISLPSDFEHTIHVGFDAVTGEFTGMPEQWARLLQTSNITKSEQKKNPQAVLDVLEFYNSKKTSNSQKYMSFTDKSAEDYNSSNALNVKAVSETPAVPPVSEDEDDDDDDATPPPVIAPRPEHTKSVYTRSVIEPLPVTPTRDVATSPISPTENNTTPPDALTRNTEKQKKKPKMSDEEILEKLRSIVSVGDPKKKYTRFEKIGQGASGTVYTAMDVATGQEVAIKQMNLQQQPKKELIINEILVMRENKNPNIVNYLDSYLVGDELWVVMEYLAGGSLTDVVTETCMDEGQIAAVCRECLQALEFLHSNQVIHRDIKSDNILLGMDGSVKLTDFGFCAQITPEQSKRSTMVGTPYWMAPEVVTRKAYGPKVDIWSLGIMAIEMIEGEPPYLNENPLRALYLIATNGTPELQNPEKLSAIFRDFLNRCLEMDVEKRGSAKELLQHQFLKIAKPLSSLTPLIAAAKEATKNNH
Data set [1] addresses T1, PAK4 (Homo sapiens, UniProt O96013). Put plainly: PAK4 HTRF assay. The format is biochemical. The settings on record: for Ki / LE / LLE: PAK4 Ki; for Ki: HTRF, average of two independent experiments; for LE: Ligand efficiency = (−1.4 Log Ki)/(n heavy atoms); for LLE: Ligand lipophilicity efficiency = (−Log Ki) − (cLogP). (In TR-FRET formats the signal depends on donor and acceptor labels being close together.)

The target of data set [2] is T1, PAK4. Conditions: read-out: PAK4 Ki (reported); cited from earlier work.
Another data set relates to A549. In words: Wound-healing assay, A549 cell migration. Conditions: 20 μmol/L. It is filed as cell-based, human.
Data set [3] is described as follows: Liver microsomal stability assay, MLM. For orientation: Liver microsomes are vesicles of endoplasmic reticulum, rich in cytochrome P450 enzymes.
A further data set in a line: in vitro. The settings on record: CD-1, mouse, mouse liver microsomes, pH 7.4.
The mark [4] stands for this setting: at least two duplicate experiments, SEM < ±20%.

T1 sequence (O96013 whole entry): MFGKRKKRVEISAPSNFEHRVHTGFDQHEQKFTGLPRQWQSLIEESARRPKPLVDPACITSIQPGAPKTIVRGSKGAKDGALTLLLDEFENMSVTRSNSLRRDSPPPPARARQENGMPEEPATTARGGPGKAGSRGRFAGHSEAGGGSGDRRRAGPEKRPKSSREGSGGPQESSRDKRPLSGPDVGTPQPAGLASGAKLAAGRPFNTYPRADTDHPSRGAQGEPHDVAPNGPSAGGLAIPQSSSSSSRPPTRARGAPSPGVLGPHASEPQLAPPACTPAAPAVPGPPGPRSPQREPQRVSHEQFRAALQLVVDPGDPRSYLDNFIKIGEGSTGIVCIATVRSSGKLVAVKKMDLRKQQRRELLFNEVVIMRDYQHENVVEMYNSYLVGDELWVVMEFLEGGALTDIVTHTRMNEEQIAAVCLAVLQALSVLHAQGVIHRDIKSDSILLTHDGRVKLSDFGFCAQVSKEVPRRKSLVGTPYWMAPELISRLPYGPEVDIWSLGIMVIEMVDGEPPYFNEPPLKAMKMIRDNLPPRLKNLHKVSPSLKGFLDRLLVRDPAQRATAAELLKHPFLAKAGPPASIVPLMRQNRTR

Take `COCCNc1nc2ccc(C#CC3(O)CCCCC3)cc2n1-c1ccnc(N)n1` [GNE-2861, reference compound]: the Ki at PAK1 (setting [4]) was 3130 nM; at PAK4 [1], 35 nM and 35.3 nM; at PAK4 [2] it was 3 nM.
On PAK1, `Nc1nccc(-n2cc(C(=O)N3CCC[C@@H](N)C3)c3ccc(C#CC4(O)CCCCC4)cc32)n1` [Compound 47] returned an inhibition constant Ki of 6990 nM. Besides, at PAK1 (setting [4]), the Ki turned out to be 6990 nM. At PAK4 [1], this compound displayed an IC50 of 6.3 nM, an LE of 0.34, an LLE of 5.65 and a Ki of 3.4 nM.
Turning to `Nc1nccc(-n2cc(C(=O)N3CCC[C@H](N)C3)c3ccc(C#CC4(O)CCCCC4)cc32)n1` [Compound 45, (S)-(3-Aminopiperidin-1-yl) (1-(2-aminopyrimidin-4-yl)-6-((1-hydroxycyclohexyl)ethynyl)-1H-indol-3-yl)methanone], on PAK1 (setting [4]), the affinity, expressed as Ki, was 2370 nM. At PAK4 [1], this compound returned an LE of 0.30, an LLE of 4.80 and a Ki of 25.6 nM.
`Nc1nccc(-n2cc(C(=O)N3CCNCC3)c3ccc(C#CC4(O)CCCCC4)cc32)n1` [Compound 42] came in with a Ki on PAK1 (setting [4]) of 4990 nM. For the same compound, in the data set on A549, the “A549, effect of compounds on the cell mobility” value turned out to be 65% ^h. At PAK4 [1], this compound registered an LE of 0.35, an LLE of 4.97 and a Ki of 6.6 nM. Moreover, the “fold increase of inhibitory capacity compared to 37” value at PAK4 [1] (PAK4, relative to 37) came to 18 fold.
In turn, `Nc1nccc(-n2cc(C(=O)NC3CCNCC3)c3ccc(C#CC4(O)CCCCC4)cc32)n1` [Compound 44] showed a Ki on PAK1 (setting [4]) of 4240 nM. Further, on PAK4 [1], the LE is on record as 0.32, the LLE stood at 5.28 and the Ki worked out at 8.3 nM.
Turning to `NC(=O)c1cn(-c2ccnc(N)n2)c2cc(C#CC3(O)CCCCC3)ccc12` [Compound 41], the liver clearance in data set [3] came to 105.5 mL/min/kg. The compound further had a Ki at PAK4 [1] of 14 nM. In addition, the half-life at 1 μmol/L in “in vitro” was found to be 23.7 min.
With `Nc1nccc(-n2cc(C(=O)N3CC[C@H](N)C3)c3ccc(C#CC4(O)CCCCC4)cc32)n1` [Compound 53], at PAK1 (setting [4]), the Ki was determined as 2870 nM. Moreover, on PAK4 [1], the LE is reported as 0.31, the LLE is on record as 4.47 and the inhibition constant (Ki) came to 22.7 nM.
For `Nc1nccc(-n2cc(C(=O)N[C@@H]3CCCNC3)c3ccc(C#CC4(O)CCCCC4)cc32)n1` [Compound 48], in that order: 7130 nM, 0.33, 5.42 and 5.6 nM.
On PAK1 (setting [4]), `Nc1nccc(-n2cc(C(=O)N3CCC(N)CC3)c3ccc(C#CC4(O)CCCCC4)cc32)n1` [Compound 43] had a Ki of 1610 nM. On PAK4 [1], this compound displayed an LE of 0.29, an LLE of 4.16 and a Ki of 42.6 nM.
